# Data as given in US20090118135A1, “METHODS AND COMPOUNDS FOR REGULATING APOPTOSIS” (The Burnham Institute, priority 2007, published 2009).
# Molecular target: T1, GST-Bfl-1 (Homo sapiens, UniProt Q16548)
# T1 construct: lacking their C-terminal transmembrane domains (about the last 20 amino acids) (“ΔTM”); made in house; host or cells: XL-1 Blue E. coli, pGEX 4T-1
# T1 sequence (Q16548 1-155 limits assumed): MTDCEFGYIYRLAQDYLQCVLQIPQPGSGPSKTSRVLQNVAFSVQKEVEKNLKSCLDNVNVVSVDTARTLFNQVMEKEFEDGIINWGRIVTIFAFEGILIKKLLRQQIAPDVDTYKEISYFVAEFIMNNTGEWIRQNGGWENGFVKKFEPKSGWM
# Test: Bfl-1/FITC-Bid BH3 competitive fluorescence polarization assay
# Format: binding
# Settings: primary HTS hits, MLSCN library (PubChem SIDs), Table 5B
# Procedure: A FPA was performed to determine the binding affinity of FITC-Bid BH3 peptide to Bcl-2 proteins. […] IC50 determinations were performed using GraphPad Prism software (GraphPad, Inc., San Diego, Calif.). FPA competition assays were performed using the same procedure described above, except that 100 nM of GST-Bfl-1 protein in a volume of 45 μl was incubated with 5 μl (50 μM) test compounds in DMSO per well for 30 min prior to addition of 50 μl (5 nM) FITC-Bid BH3 peptide. The final DMSO concentration was 5% when the reactions brought to fall volume of 100 μl. Fluorescence polarization was measured after 10 min. Compounds that reduced the fluorescence polarization by 50% were considered hits.
SMILES,% Activity [%],FRatio
O=C(COC(=O)Cc1ccccc1)Nc1ncc(Cl)cc1Cl [Compound 14744122],58.8,1.03
Cc1csc2nc(CNS(=O)(=O)N(C)C)cn12 [Compound 7970333],53.8,0.96
CC1CCN(c2ccc(C(=O)O)cc2N)CC1 [Compound 852908],73.3,0.75
Cc1cc(OCC(=O)Nc2ccc(N3CCCC3)cc2)cc(C)c1Cl [Compound 14734365],59.3,0.71
COc1ccc(S(=O)(=O)N2Cc3ccccc3CC2C(=O)O)cc1 (stereo not drawn) [Compound 16953199],53,0.85
Oc1ccc(Nc2nc(N3CCCC3)c3ccccc3n2)cc1 [Compound 852615],96.1,0.46
Cc1ccc(S(=O)(=O)Cc2ccc(C(=O)N3CCc4ccccc4C3)o2)cc1 [Compound 14733336],60.8,0.93
Cc1ccc(N2CN=c3s/c(=C\c4cccnc4)c(=O)n3C2)cc1 [Compound 858221],78.6,0.88
O=C(COc1ccccc1C(=O)N/N=C/c1ccc(O)c(O)c1)N/N=C/c1ccc(O)c(O)c1 [Compound 17409262],70.9,0.77
Cc1ccc(C)n1Cc1ccc(C(=O)O)cc1 [Compound 858431],76.8,0.63
O=C(Cc1cnn(-c2ccccc2)c1)c1ccc(O)c(O)c1O [Compound 14732615],57.8,0.74
Cc1ccc(S(=O)(=O)N2CCCCC2)cc1C(=O)Nc1nc[nH]n1 [Compound 3716232],50.5,0.86
COc1cc(CC(=O)OCC(=O)Nc2ncc(Cl)cc2Cl)cc(OC)c1OC [Compound 3714968],54,1.42
Nc1nc(-c2ccco2)nn1C(=O)CCc1ccccc1 [Compound 4254649],63.2,0.83
O=C(CSc1ccc(Cl)cc1)c1ccco1 [Compound 3711335],75.2,0.83
COC(=O)C1=C(C)N(c2ccccc2)/C(=C/c2cccs2)C1=O [Compound 17415043],65.7,0.53
CCN(CC)CCc1c(C)[nH]c(C(=O)OCc2ccccc2)c1C [Compound 853427],70.8,1
c1coc(-c2nn3c(-c4ccco4)nnc3s2)c1 [Compound 853208],60.4,0.83
O=C(CSc1nnc(-c2ccco2)c(-c2ccco2)n1)Nc1ccccc1 [Compound 860234],71.5,1.17
Cc1ccc(/N=N/c2ccc(O)c(/C=N/NC(=O)c3ccc(N)cc3)c2)cc1C [Compound 16952937],91.7,0.71
Cc1cc2cc(CN(Cc3ccco3)S(=O)(=O)c3c(C)ccc4nsnc34)c(O)nc2cc1C [Compound 14720830],56,1.29

SMILES,% Activity [%],FRatio
O=C(NCc1ccco1)c1c2c(nc3ccccc13)CCC2 [Compound 3715091],62.4,0.86
Cc1ccc(C)n1-c1cccc(C(=O)O)c1 [Compound 4257870],95.8,0.65
O=C1c2ccccc2CC1Sc1nnc(-c2ccccn2)o1 (stereo not drawn) [Compound 842657],65.7,1.17
CC(=O)Nc1ccc(OC(=O)CC2SC(=O)NC2=O)cc1 (stereo not drawn) [Compound 860139],68.2,1.06
CCSc1nnc(NC(=O)c2cnccn2)s1 [Compound 7977261],58.3,1.19
COc1cc(CNCCc2c[nH]c3ccccc23)ccc1OCc1ccc(F)cc1 [Compound 17386700],76.5,0.84
Nc1cc2nsnc2cc1Br [Compound 17407909],58.5,1.42
C=CCNS(=O)(=O)c1nc(C)c(Cl)c(C)c1C#N [Compound 4251530],69.9,0.59
O=C(O)CCc1ccc(-c2cccs2)n1CCC(=O)O [Compound 848328],74.6,0.59
COc1cc(-c2nnc(SCc3cc(=O)oc4cc(O)c(O)cc34)o2)cc(OC)c1OC [Compound 17385711],68.3,0.7
CCc1ccccc1NC(=O)c1cc2ncc(Br)cn2n1 [Compound 14733824],74.2,0.79
Cc1ccc(C(=O)ONc2ccc(/N=N/C(=O)c3ccccc3O)cc2)cc1 [Compound 14732345],108.7,0.83
CC(C)CN(C(=O)COC(=O)c1cc2c(s1)CCC2)C1CCS(=O)(=O)C1 (stereo not drawn) [Compound 3714271],53.1,0.67
COc1ccc(S(=O)(=O)N2CCCC2C(=O)Nc2nnc(-c3cccnc3)s2)cc1 (stereo not drawn) [Compound 3713012],50.9,0.9
CCOC(=O)c1ccc(NC2=CC(=O)C(=O)c3ccccc32)cc1 [Compound 14737410],89.5,1.15
Cc1ccc(NC(=O)Nc2cccs2)c(Cl)c1 [Compound 14734202],66.3,1.39
Cc1c[nH]c2cccc(OCC(O)CNC(C)(C)C)c12 (stereo not drawn) [Compound 856249],52.2,0.65
COc1ccc(C2C=C(c3ccc(Br)cc3)Nc3nc(NS(C)(=O)=O)nn32)cc1 (stereo not drawn) [Compound 17401655],54.6,1.46
CN(C)c1ccc(NC(=O)Cn2cc3c(n2)CCCC3)cc1 [Compound 7968138],57.6,0.56
CCn1c(SC(C)C(=O)O)nc2sc3c(c2c1=O)CCC3 (stereo not drawn) [Compound 856662],95.1,0.59
CN(C)c1cccc(C(=O)OCc2cc(=O)oc3cc(O)ccc23)c1 [Compound 17388495],71.7,1

SMILES,% Activity [%],FRatio
c1nnnn1C12CC3CC(CC(C3)C1)C2 [Compound 14725293],60.7,0.98
Cc1cccc(OCC(=O)Nc2ccc(S(=O)(=O)N3CCCC3)cc2)c1 [Compound 7973703],79.2,0.82
Cc1ccc2nc(O)c(C3C(C#N)=C(N)Oc4c3ccc3cccnc43)cc2c1 (stereo not drawn) [Compound 14720783],55,0.84
c1cc2c3c(cccc3c1)NC1(CCCCC1)N2 [Compound 14724643],52.7,0.82
O=c1c2cc(N3CCOCC3)ccc2[nH]c(=S)n1CCCN1CCCCCC1 [Compound 4251175],62.3,0.65
O=C(CCCCCn1c(=S)[nH]c2ccccc2c1=O)NCc1ccc2c(c1)OCO2 [Compound 17402018],52.9,1.37
N#Cc1ccccc1CN1C(=O)S/C(=C/c2cccn2-c2ccc(C(=O)O)cc2)C1=O [Compound 17385953],63.5,0.75
O=C(Nc1ccccc1)c1ccc2nc(-c3ccco3)c(-c3ccco3)nc2c1 [Compound 4258186],52.2,0.88
COc1ccc(NC(=O)c2cnn3c(C(F)(F)F)cc(-c4ccco4)nc23)cc1OC [Compound 7974080],52,0.9
Cc1ccc(-n2c(SCc3cc(=O)n4ccsc4n3)nnc2-c2cccnc2)c(C)c1 [Compound 3712302],80.3,0.96
COc1ccc(C(N)CCc2ccc(C)o2)cc1 (stereo not drawn) [Compound 4244526],67.6,0.84
c1cc2c3c(cccc3c1)NC1(CCCCCC1)N2 [Compound 4263637],64.3,0.58
Cc1ccccc1C1C(=O)c2sc3nc4c(c(=O)n3c2C1=O)CCC4 (stereo not drawn) [Compound 7977096],50.8,0.88
CC1(C)CCCN(C(=O)c2coc(=O)c(Br)c2)C1 [Compound 862800],80.8,0.65
Cc1ccc(OCC(=O)Nc2ccc(N3CCCC3)cc2)cc1C [Compound 7974807],90.6,0.76
COc1ccccc1CNC(=O)COC(=O)c1cc(-c2ccco2)nc2ccccc12 [Compound 17385737],70.8,0.81
O=C(c1coc(=O)c(Br)c1)N1CCOCC1 [Compound 860621],84.9,0.55
CSc1ccccc1NC(=O)c1noc2c1CCC2 [Compound 4244309],75.7,0.44
Cc1ccc(NC(=O)CSc2nnc(-c3ccco3)c(-c3ccco3)n2)cc1 [Compound 860242],56.9,1.34
O=C(c1cc2c(s1)CCC2)N1CCN(c2ccccc2)CC1 [Compound 14745443],71.6,0.73
Oc1ccc(-c2cn3c(n2)SCC3)cc1O [Compound 14746201],77.7,0.91
